Molecular target: T1, Myriococcum thermophilum cellobiose dehydrogenase (CDH, SEQ ID NO: 1) variant W316R (Thermothelomyces myriococcoides, UniProt A9XK88, W316R)
T1 sequence (A9XK88 22-828 W316R): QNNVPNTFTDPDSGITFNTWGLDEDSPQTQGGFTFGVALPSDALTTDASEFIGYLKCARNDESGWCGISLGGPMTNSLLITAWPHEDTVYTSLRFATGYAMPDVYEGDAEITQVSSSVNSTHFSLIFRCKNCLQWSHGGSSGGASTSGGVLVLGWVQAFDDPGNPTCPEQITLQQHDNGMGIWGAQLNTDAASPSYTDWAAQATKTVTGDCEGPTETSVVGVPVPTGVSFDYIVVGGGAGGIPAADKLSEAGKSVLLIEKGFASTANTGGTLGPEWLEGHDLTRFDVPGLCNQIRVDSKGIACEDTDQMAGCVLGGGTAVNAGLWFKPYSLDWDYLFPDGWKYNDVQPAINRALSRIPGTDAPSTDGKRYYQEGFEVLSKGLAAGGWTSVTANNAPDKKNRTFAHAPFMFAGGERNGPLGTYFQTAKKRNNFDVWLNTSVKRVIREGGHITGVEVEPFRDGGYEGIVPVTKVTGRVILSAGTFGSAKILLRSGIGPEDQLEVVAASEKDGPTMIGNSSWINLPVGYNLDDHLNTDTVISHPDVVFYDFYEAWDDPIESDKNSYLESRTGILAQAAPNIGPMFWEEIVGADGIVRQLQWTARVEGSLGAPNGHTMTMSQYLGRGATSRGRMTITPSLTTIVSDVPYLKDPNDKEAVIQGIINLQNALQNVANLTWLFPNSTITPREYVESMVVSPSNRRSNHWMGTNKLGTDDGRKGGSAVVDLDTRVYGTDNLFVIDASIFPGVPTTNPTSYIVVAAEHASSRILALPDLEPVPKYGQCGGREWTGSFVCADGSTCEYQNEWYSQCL
Assay: Steady-state kinetics, DCIP assay: M. thermophilum CDH W316R
Assay type: biochemical
Details: apparent, pH 4.5, 30° C.
Experimental: Enzyme activity was assayed at 30° C. using either the DCIP (Karapetyan et al., 2005 Journal of Biotechnology 121: 34-48) or cytochrome c (Canevascini et al., 1991, European Journal of Biochemistry 198: 43-52) as electron acceptor. […] Stock solutions of carbohydrates used for kinetic measurements were prepared in the respective buffer and allowed to stand overnight for mutarotation, while stock solutions of electron acceptors were prepared in water and immediately used. The reaction stoichiometry is 1 for the two-electron acceptor DCIP (1 mole of DCIP reduced per mole of carbohydrate oxidized), but 2 for the one-electron acceptor cytochrome c. Kinetic constants were calculated by fitting the observed data to the Henri-Michaelis-Menten equation or to the adapted model for substrate inhibition using nonlinear least-squares regression and the program SigmaPlot (Systat Software, San Jose, Calif., USA). […]
Recombinant wild-type CDH as well as variants were produced in 1 L baffled flasks. […] Increase in activity was monitored using the DCIP and the cytochrome c enzyme assays. […]
The sample was loaded on a 20 mL PHE Sepharose FF column (HR26/20) equilibrated with 50 mM Na-acetate buffer pH 5.5 containing 20% ammonium sulfate. […] Fractions were tested for CDH activity and pooled according to the highest Reinheitszahl (RZ, calculated from the absorbance ratio 420 nm/280 nm). […]

With `OC[C@H]1O[C@H](O[C@H]2[C@H](O)[C@@H](O)C(O)O[C@@H]2CO)[C@H](O)[C@@H](O)[C@@H]1O` (some centres unmarked) [Maltose, maltose] the kcat/KM was 0.09 M⁻¹ s⁻¹ and the kcat (~ values only estimated by non linear regression) was 0.12 s⁻¹.
